The numbers were not newly measured in patent US20100221326A1, “PHARMACEUTICAL COMPOSITIONS FOR ORAL USE FOR TREATING PATIENTS AFFECTED BY OBESITY” (MADER S.R.L., priority 2007, published 2010), which cites them from elsewhere.

For this data set the following is noted: raw material.

Consider `CCCCCCCCCCC[C@@H](C[C@@H]1OC(=O)[C@H]1CCCCCC)OC(=O)[C@H](CC(C)C)NC=O` [Orlistat], for which the “degradation of the active principle” value (25° C., 65% RH, after 7 days' storage) is 15%. The degradation entry (40° C., RH 75%) is given as “greater than 40%”.
